Reference: patent US8674109B2, “Pesticidal compositions” (Dow AgroSciences, LLC., priority 2009, dated 2014)

Legend:
Type in all cases: in vivo
[1] = tested on: green peach aphid (Myzus persicae); assay: Insecticidal test for green peach aphid in foliar spray assay on cabbage seedlings
Method: Insecticidal Test for Green Peach Aphid (Myzus persicae) in Foliar Spray Assay
Cabbage seedlings grown in 3-inch pots, with 2-3 small (3-5 cm) true leaves, were used as test substrate. The seedlings were infested with 20-50 green peach aphids (wingless adult and nymph) one day prior to chemical application. Four pots with individual seedlings were used for each treatment. Compounds (2 mg) were dissolved in 2 mL of acetone/methanol (1:1) solvent, forming stock solutions of 1000 ppm. The stock solutions were diluted 5× with 0.025% Tween 20 in H2O to obtain the solution at 200 ppm. A hand-held Devilbiss sprayer was used for spraying a solution to both sides of cabbage leaves until runoff. Reference plants (solvent check) were sprayed with the diluent only. Treated plants were held in a holding room for three days at approximately 25° C. and 40% relative humidity (RH) prior to grading. Evaluation was conducted by counting the number of live aphids per plant under a microscope. Insecticidal activity was measured by using Abbott's correction formula are presented in Table 2: Corrected % Control=100*(X−Y)/X
where • X=No. of live aphids on solvent check plants • Y=No. of live aphids on treated plants

[2] = tested on: corn earworm (CEW; Helicoverpa zea: Lepidoptera); assay: Insecticidal test for corn earworm, 128-well diet tray assay
Method: Insecticidal Test for Corn Earworm (Helicoverpa zea)
(§1) Bioassays on corn earworm (CEW; Helicoverpa zea: Lepidoptera) were conducted using a 128-well diet tray assay. Three to five second instar CEW larvae were placed in each well (3 mL) of the diet tray that had been previously filled with 1 mL of artificial diet to which 50 μg/cm^2 of the test compound (dissolved in 50 μL of 90:10 acetone-water mixture) had been applied (to each of eight wells) and then allowed to dry. Trays were covered with a clear self-adhesive cover, and held at 25° C., 14:10 light-dark for six days. Percent mortality was recorded for the larvae in each well; activity in the eight wells was then averaged.

[3] = tested on: beet armyworm (BAW; Spodoptera exigua: Lepidoptera); assay: Insecticidal test for beet armyworm, 128-well diet tray assay
Method: Insecticidal Test for Beet Armyworm (Spodoptera exigua)
as §1, with “beet armyworm (BAW; Spodoptera exigua:” for “corn earworm (CEW; Helicoverpa zea:”, “BAW” for “CEW”

| Compound | % Mortality GPA 200 ppm [1] | % Mortality CEW 50 μg/cm^2 [2] | % Mortality BAW 50 μg/cm^2 [3] |
| --- | --- | --- | --- |
| CC(C)(C)OC(=O)Nc1ccc(-c2ncn(-c3ccc(OC(F)(F)C(F)(F)F)cc3)n2)cc1 [Compound 1, {4-[1-(4-pentafluoroethyloxyphenyl)-1H-[1,2,4]triazol-3-yl]-phenyl}-carbamic acid tert-butyl ester] | B (Less than 80) | A (50-100) | A (50-100) |
| CO[C@@H]1O[C@@H](C)[C@H](OC)[C@@H](OC(=O)Nc2ccc(-c3ncn(-c4ccc(OC(F)(F)F)cc4)n3)cc2)[C@H]1OC [Compound 2] | B (Less than 80) | B (Less than 50) | A (50-100) |
| CCOc1cnc(C(C)(C)OC(=O)Nc2ccc(-c3ncn(-c4ccc(OC(F)(F)F)cc4)n3)cc2)nc1 [Compound 3, {4-[1-(4-trifluoromethoxyphenyl)-1H-[1,2,4]triazol-3-yl]-phenyl}-carbamic acid 1-(5-ethoxy-pyrimidin-2-yl)-1-methyl-ethyl ester] | B (Less than 80) | B (Less than 50) | A (50-100) |
| CC1(OC(=O)Nc2ccc(-c3ncn(-c4ccc(OC(F)(F)F)cc4)n3)cc2)CCCCC1 [Compound 4] | B (Less than 80) | B (Less than 50) | B (Less than 50) |
| COCC(C)(C)OC(=O)Nc1ccc(-c2ncn(-c3ccc(OC(F)(F)F)cc3)n2)cc1 [Compound 5] | B (Less than 80) | A (50-100) | A (50-100) |
| CCCC(C)(C)OC(=O)Nc1ccc(-c2ncn(-c3ccc(OC(F)(F)F)cc3)n2)cc1 [Compound 6] | B (Less than 80) | B (Less than 50) | A (50-100) |
| CCOC(=O)c1csc(C(=O)C(C)(C)OC(=O)Nc2ccc(-c3ncn(-c4ccc(OC(F)(F)F)cc4)n3)cc2)n1 [Compound 7] | B (Less than 80) | B (Less than 50) | B (Less than 50) |
| CC(C)(OC(=O)Nc1ccc(-c2ncn(-c3ccc(OC(F)(F)F)cc3)n2)cc1)C(F)(F)F [Compound 8] | B (Less than 80) | A (50-100) | A (50-100) |
| CCCCC(C)OC(=O)Nc1ccc(-c2ncn(-c3ccc(OC(F)(F)F)cc3)n2)cc1 (stereo not drawn) [Compound 9, {4-[1-(4-trifluoromethoxyphenyl)-1H-[1,2,4]triazol-3-yl]-phenyl}-carbamic acid 1-methyl-pentyl ester] | B (Less than 80) | A (50-100) | A (50-100) |
| CC(C)OC(=O)Nc1ccc(-c2ncn(-c3ccc(OC(F)(F)C(F)(F)F)cc3)n2)cc1 [Compound 10] | B (Less than 80) | B (Less than 50) | A (50-100) |
| CC(C)(Cc1ccccc1)OC(=O)Nc1ccc(-c2ncn(-c3ccc(OC(F)(F)F)cc3)n2)cc1 [Compound 11, {4-[1-(4-trifluoromethoxyphenyl)-1H-[1,2,4]triazol-3-yl]-phenyl}-carbamic acid 1,1-dimethyl-2-phenyl-ethyl ester] | B (Less than 80) | A (50-100) | A (50-100) |
| C#CC(C)(C)OC(=O)Nc1ccc(-c2ncn(-c3ccc(OC(F)(F)F)cc3)n2)cc1 [Compound 12, {4-[1-(4-trifluoromethoxyphenyl)-1H-[1,2,4]triazol-3-yl]-phenyl}-carbamic acid 1,1-dimethyl-prop-2-ynyl ester] | B (Less than 80) | A (50-100) | A (50-100) |
| C#CC(C)(C)OC(=O)Nc1ccc(-c2ncn(-c3ccc(C(F)(F)F)cc3)n2)cc1 [Compound 13, {4-[1-(4-trifluoromethylphenyl)-1H-[1,2,4]triazol-3-yl]-phenyl}-carbamic acid 1,1-dimethyl-prop-2-ynyl ester] | B (Less than 80) | A (50-100) | A (50-100) |
| CC(C)(C#N)OC(=O)Nc1ccc(-c2ncn(-c3ccc(OC(F)(F)F)cc3)n2)cc1 [Compound 14, {4-[1-(4-trifluoromethoxyphenyl)-1H-[1,2,4]triazol-3-yl]-phenyl}-carbamic acid cyano-dimethyl-methyl ester] | – | B (Less than 50) | B (Less than 50) |
| CC(OC(=O)Nc1ccc(-c2ncn(-c3ccc(OC(F)(F)F)cc3)n2)cc1)C1CC1 (stereo not drawn) [Compound 15, 4 {4-[1-(4-trifluoromethoxyphenyl)-1H-[1,2,4]triazol-3-yl]-phenyl}-carbamic acid 1-cyclopropyl-ethyl ester] | B (Less than 80) | A (50-100) | A (50-100) |
| CC(OC(=O)Nc1ccc(-c2ncn(-c3ccc(OC(F)(F)F)cc3)n2)cc1)C1CCCCC1 (stereo not drawn) [Compound 16] | B (Less than 80) | B (Less than 50) | B (Less than 50) |
| CCOC(=O)CC(C)OC(=O)Nc1ccc(-c2ncn(-c3ccc(OC(F)(F)F)cc3)n2)cc1 (stereo not drawn) [Compound 17] | B (Less than 80) | A (50-100) | B (Less than 50) |
| COCCOCC(C)(C)OC(=O)Nc1ccc(-c2ncn(-c3ccc(OC(F)(F)F)cc3)n2)cc1 [Compound 18] | B (Less than 80) | A (50-100) | A (50-100) |
| C=CC(C)(C)OC(=O)Nc1ccc(-c2ncn(-c3ccc(OC(F)(F)F)cc3)n2)cc1 [Compound 19] | B (Less than 80) | A (50-100) | A (50-100) |
| CCOC(=O)C(C)(C)OC(=O)Nc1ccc(-c2ncn(-c3ccc(OC(F)(F)F)cc3)n2)cc1 [Compound 20] | B (Less than 80) | A (50-100) | A (50-100) |
| CC(C)(OC(=O)Nc1ccc(-c2ncn(-c3ccc(OC(F)(F)F)cc3)n2)cc1)c1ccccc1 [Compound 21] | B (Less than 80) | A (50-100) | A (50-100) |
| COc1ccc(CC(C)OC(=O)Nc2ccc(-c3ncn(-c4ccc(OC(F)(F)F)cc4)n3)cc2)cc1 (stereo not drawn) [Compound 22] | B (Less than 80) | A (50-100) | A (50-100) |
| CCCCC(OC(=O)Nc1ccc(-c2ncn(-c3ccc(OC(F)(F)F)cc3)n2)cc1)C(=O)OCC (stereo not drawn) [Compound 26, 2-{4-[1-(4-trifluoromethoxyphenyl)-1H-[1,2,4]triazol-3-yl]-phenylcarbamoyloxy}-hexanoic acid ethyl ester] | – | A (50-100) | A (50-100) |
| C[C@H](OC(=O)Nc1ccc(-c2ncn(-c3ccc(OC(F)(F)F)cc3)n2)cc1)c1ccccc1 [Compound 60] | – | A (50-100) | A (50-100) |
| C[C@@H](OC(=O)Nc1ccc(-c2ncn(-c3ccc(OC(F)(F)F)cc3)n2)cc1)c1ccccc1 [Compound 61] | – | A (50-100) | A (50-100) |
| O=C(Nc1ccc(-c2ncn(-c3ccc(OC(F)(F)F)cc3)n2)cc1)Oc1cccc(C(F)(F)F)c1 [Compound 125] | B (Less than 80) | – | – |
| O=C(Nc1ccc(-c2ncn(-c3ccc(OC(F)(F)F)cc3)n2)cc1)Oc1ccc(C(F)(F)F)cc1 [Compound 126] | B (Less than 80) | – | – |
| O=C(Nc1ccc(-c2ncn(-c3ccc(OC(F)(F)F)cc3)n2)cc1)Oc1ccc(F)cc1 [Compound 127] | B (Less than 80) | – | – |
| CN(C(=O)OC(C)(C)C)c1ccc(-c2ncn(-c3ccc(OC(F)(F)F)cc3)n2)cc1 [Compound 131, tert-butyl methyl(4-(1-(4-(trifluoromethoxy)phenyl)-1H-1,2,4-triazol-3-yl)phenyl)carbamate] | B (Less than 80) | – | – |
